Legend:
[1] = target: T1, organic anion-transporting polypeptide 1B1 (OATP1B1) (Homo sapiens, UniProt Q9Y6L6); assay: Inhibition of OATP1B1, transfected CHO cells; assay type: cell-based
T1 construct: expressed in transfected cells; host or cells: CHO
T1 sequence (Q9Y6L6 1-691): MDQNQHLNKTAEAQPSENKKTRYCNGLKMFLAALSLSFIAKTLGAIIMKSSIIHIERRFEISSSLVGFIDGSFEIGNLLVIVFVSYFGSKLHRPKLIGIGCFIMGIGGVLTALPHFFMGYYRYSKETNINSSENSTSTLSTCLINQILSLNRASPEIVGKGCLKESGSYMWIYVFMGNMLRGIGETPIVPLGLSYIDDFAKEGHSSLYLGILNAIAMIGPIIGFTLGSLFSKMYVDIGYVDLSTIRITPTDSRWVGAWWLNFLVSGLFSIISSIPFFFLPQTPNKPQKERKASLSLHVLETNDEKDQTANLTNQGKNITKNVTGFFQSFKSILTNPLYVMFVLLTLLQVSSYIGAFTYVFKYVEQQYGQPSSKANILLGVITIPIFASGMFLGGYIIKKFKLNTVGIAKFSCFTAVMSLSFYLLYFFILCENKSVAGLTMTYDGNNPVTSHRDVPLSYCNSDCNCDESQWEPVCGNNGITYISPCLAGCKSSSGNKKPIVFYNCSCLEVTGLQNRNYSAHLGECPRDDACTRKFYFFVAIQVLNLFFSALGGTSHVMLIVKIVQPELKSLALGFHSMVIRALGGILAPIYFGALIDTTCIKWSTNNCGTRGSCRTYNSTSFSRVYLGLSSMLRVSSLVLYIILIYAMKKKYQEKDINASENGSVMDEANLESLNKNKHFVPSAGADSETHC
Description: (§1) Inhibition constants (IC50) were measured for human bile salt export pump (BSEP), sodium taurocholate cotransporting polypeptide (NTCP), multidrug resistance protein 2 (MRP2), P-glycoprotein (Pgp), breast cancer resistance protein (BCRP), organic anion-transporting polypeptide 1B1 (OATP1B1), and OATP1B3 in transfected cell-lines. Known inhibitors were used as positive controls.

[2] = MGPS disproportionality analysis of FDA AERS spontaneous reports of hepatic events; design: species or system human; key to EBGM: ratio of observed to expected reports (independence assumption); conditions: for Count / EBGM: FDA AERS, 18 months post approval; for EB05: lower bound of 90% confidence interval of EBGM
Description: A disproportionality analysis was performed for ambrisentan and bosentan using information from the FDA Adverse Events Reporting System (AERS) spontaneous reporting database. […] The value of the EBGM reflects the ratio of the number of observed reports of a drug-adverse event combination with the number expected under an assumption of independence between the drugs and events in the database. […] In order to reduce the occurrence of false positives due to age group or gender influence, the safety reports were stratified by subject age group and gender. For each drug, the AERS data were analyzed for the 18-month period following the respective approval dates for ambrisentan and bosentan: 15 Jun. 2007 to 14 Dec. 2008 for ambrisentan and 21 Nov. 2001 to 20 May 2003 for bosentan. […] This threshold is generally accepted as a signal of disproportional reporting (Szarfman, et al., “Use of screening algorithms and computer systems to efficiently signal higher-than-expected combinations of drugs and events in the US FDA's spontaneous reports database.” Drug Safety 25, 381-392 (2002)). The comparator dataset in the calculations for ambrisentan and bosentan included data for all other drugs in the AERS database.

[3] = target: T2, sodium taurocholate cotransporting polypeptide (NTCP) (Homo sapiens, UniProt Q14973); assay: Inhibition of hepatic transporter NTCP, transfected CHO cells; assay type: cell-based
T2 construct: expressed in transfected cells; host or cells: Chinese Hamster Ovary (CHO)
T2 sequence (Q14973 1-349): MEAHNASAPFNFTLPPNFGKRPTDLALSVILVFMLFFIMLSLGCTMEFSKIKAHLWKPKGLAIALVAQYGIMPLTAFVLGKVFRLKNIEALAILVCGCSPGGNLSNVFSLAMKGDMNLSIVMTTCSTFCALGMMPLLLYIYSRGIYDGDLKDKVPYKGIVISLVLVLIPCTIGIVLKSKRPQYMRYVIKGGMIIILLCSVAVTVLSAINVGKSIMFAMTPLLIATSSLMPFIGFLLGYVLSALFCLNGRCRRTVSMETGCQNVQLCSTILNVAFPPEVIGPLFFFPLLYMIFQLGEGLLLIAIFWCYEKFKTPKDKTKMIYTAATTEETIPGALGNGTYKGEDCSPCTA
Description: as §1

[4] = Blood alkaline phosphate increased
[5] = Blood bilirubin unconjugated increased

COC(c1ccccc1)(c1ccccc1)[C@H](Oc1nc(C)cc(C)n1)C(=O)O [Ambrisentan, (25)-2-[(4,6-dimethylpyrimidin-2-yl)oxy]-3-methoxy-3,3-diphenylpropanoic acid]
IC50 [1]: 47 ± 21.3 µM
Count ([2]; ALT increased): 3
EBGM ([2]; ALT increased): 1.55
Count ([2]; AST increased): 3
EBGM ([2]; AST increased): 1.63
Count ([2]; Ascites): 2
EBGM ([2]; Ascites): 1.80
Count ([2]; Bilirubin conjugated increased): 0
Count [2, 4]: 1
EBGM [2, 4]: 0.86
Count ([2]; Blood bilirubin increased): 0
Count [2, 5]: 0
Count ([2]; Hepatic congestion): 0
Count ([2]; Hepatic encephalopathy): 0
Count ([2]; Hepatic enzyme increased): 3
EBGM ([2]; Hepatic enzyme increased): 1.67
Count ([2]; Hepatic failure): 0
Count ([2]; Hepatic function abnormal): 0
Count ([2]; Hepatic infarction): 0
Count ([2]; Hepatic necrosis): 0
Count ([2]; Hepatic steatosis): 1
EBGM ([2]; Hepatic steatosis): 1.06
Count ([2]; Hepatitis acute): 0
Count ([2]; Hepatitis): 1
EBGM ([2]; Hepatitis): 0.89
Count ([2]; Hepatomegaly): 0
Count ([2]; Hepatosplenomegaly): 0
Count ([2]; INR increased): 1
EBGM ([2]; INR increased): 0.78
Count ([2]; Liver disorder): 2
EBGM ([2]; Liver disorder): 1.43
Count ([2]; Liver function test abnormal): 10
EBGM ([2]; Liver function test abnormal): 6.11
Count ([2]; Prothrombin time prolonged): 1
EBGM ([2]; Prothrombin time prolonged): 1.29
Count ([2]; Spider naevus): 0
Count ([2]; Transaminases increased): 2
EBGM ([2]; Transaminases increased): 1.96
EB05 ([2]; liver function test abnormal): 3.5
effect on NTCP [3]: no measurable effect

COc1ccccc1Oc1c(NS(=O)(=O)c2ccc(C(C)(C)C)cc2)nc(-c2ncccn2)nc1OCCO [Bosentan]
IC50 [1]: 5 ± 2 µM
Count ([2]; ALT increased): 57
EBGM ([2]; ALT increased): 11.57
Count ([2]; AST increased): 60
EBGM ([2]; AST increased): 12.52
Count ([2]; Ascites): 8
EBGM ([2]; Ascites): 3.60
Count ([2]; Bilirubin conjugated increased): 5
EBGM ([2]; Bilirubin conjugated increased): 13.91
Count [2, 4]: 46
EBGM [2, 4]: 18.79
Count ([2]; Blood bilirubin increased): 37
EBGM ([2]; Blood bilirubin increased): 18.75
Count [2, 5]: 2
EBGM [2, 5]: 3.28
Count ([2]; Hepatic congestion): 5
EBGM ([2]; Hepatic congestion): 13.18
Count ([2]; Hepatic encephalopathy): 1
EBGM ([2]; Hepatic encephalopathy): 1.00
Count ([2]; Hepatic enzyme increased): 0
Count ([2]; Hepatic failure): 3
EBGM ([2]; Hepatic failure): 1.07
Count ([2]; Hepatic function abnormal): 2
EBGM ([2]; Hepatic function abnormal): 0.91
Count ([2]; Hepatic infarction): 1
EBGM ([2]; Hepatic infarction): 1.44
Count ([2]; Hepatic necrosis): 1
EBGM ([2]; Hepatic necrosis): 0.94
Count ([2]; Hepatic steatosis): 0
Count ([2]; Hepatitis acute): 1
EBGM ([2]; Hepatitis acute): 1.04
Count ([2]; Hepatitis): 5
EBGM ([2]; Hepatitis): 1.63
Count ([2]; Hepatomegaly): 1
EBGM ([2]; Hepatomegaly): 0.79
Count ([2]; Hepatosplenomegaly): 2
EBGM ([2]; Hepatosplenomegaly): 2.09
Count ([2]; INR increased): 9
EBGM ([2]; INR increased): 3.08
Count ([2]; Liver disorder): 1
EBGM ([2]; Liver disorder): 0.56
Count ([2]; Liver function test abnormal): 38
EBGM ([2]; Liver function test abnormal): 9.59
Count ([2]; Prothrombin time prolonged): 2
EBGM ([2]; Prothrombin time prolonged): 1.22
Count ([2]; Spider naevus): 1
EBGM ([2]; Spider naevus): 1.46
Count ([2]; Transaminases increased): 5
EBGM ([2]; Transaminases increased): 3.58
EB05 ([2]; blood alkaline phosphate increased): 14.6
EB05 ([2]; liver function test abnormal): 6.9
effect on NTCP [3]: inhibition was observed
IC50 ([3]; NTCP): 36.5 µM
